Holding throughout (format): biochemical
One assay addresses T1, 5-α-reductase type II (Homo sapiens, UniProt P31213).
T1 sequence (P31213 1-254): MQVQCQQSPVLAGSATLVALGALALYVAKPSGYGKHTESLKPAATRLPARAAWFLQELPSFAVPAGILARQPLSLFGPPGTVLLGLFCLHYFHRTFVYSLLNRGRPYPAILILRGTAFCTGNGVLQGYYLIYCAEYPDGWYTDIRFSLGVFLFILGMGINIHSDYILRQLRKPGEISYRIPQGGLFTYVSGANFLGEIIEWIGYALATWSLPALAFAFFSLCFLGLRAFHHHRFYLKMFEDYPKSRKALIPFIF
Kind of assay: Activity against 5-α-reductase type II. Particulars: statement in words, compared with finasteride. How it is done:
(§1) Rat 5-α-reductase II enzyme assay: Epididymus, taken out during the isolation of the rat prostates during rat enzyme I assay, was stored at −70° C. Isolation of the enzyme and the assay were carried out following the procedure described above, except the reaction buffer used was 40 mM Tris-citrate, pH 4.5. The range of IC50 values for different test compounds obtained from different experiments is shown in Table 1 under the column, Rat Epididymus Enzyme II IC50.
(§2) Human 5-α-reductase II enzyme assay: Specimens of human prostates were quickly frozen in dry ice after collection and kept at −70° C. before isolation of the enzyme. Isolation of the enzyme and the assay were carried out following a similar procedure as for the isolation of rat 5-α-reductase II enzyme with some modifications. During the isolation of the enzyme, 50 μM NADPH was added to the homogenizing buffer as a stabilizer. The enzyme was stored in the homogenizing buffer containing 20% glycerol. The enzyme reaction buffer used as 40 mM Tris-citrate buffer, pH 5.0. The range of IC50 values for different test compounds obtained from different experiments is shown in Table 1 under the column, Human Prostate Enzyme II IC50.

Assay [1] addresses T2, 5-α-reductase II enzyme (Homo sapiens, UniProt P31213).
T2 construct: Specimens of human prostates were quickly frozen in dry ice after collection and kept at −70° C. before isolation of the enzyme; from tissue; host or cells: human prostate specimens, particulate fraction
T2 sequence (P31213 1-254): T1 sequence (P31213 1-254)
Kind of assay: Human 5-α-reductase II enzyme assay (human prostate). To be noted: Tris-citrate pH 5.0. How it is done: (§3) Biochemical Assays were carried out to determine the inhibitory activities of various compounds of the previous examples on 5-α-reductase I enzyme isolated from male rate prostate and 5-α-reductase II enzyme isolated from rat epididymus and human prostate. These procedures were carried out following published literature procedures (H. Takami et al., J. Med. Chem., 39, pp 5047-5052; Tehming Liang, Margaret A. Cascieri et al., Endocrinology, 117, pp 571-579). Brief descriptions are as follows:
as §1, §2

The target in assay [2] is T3, 5-α-reductase II enzyme (Rattus norvegicus, UniProt P31214).
T3 construct: from tissue; host or cells: rat epididymis (Sprague Dawley), particulate fraction
T3 sequence (P31214 1-254): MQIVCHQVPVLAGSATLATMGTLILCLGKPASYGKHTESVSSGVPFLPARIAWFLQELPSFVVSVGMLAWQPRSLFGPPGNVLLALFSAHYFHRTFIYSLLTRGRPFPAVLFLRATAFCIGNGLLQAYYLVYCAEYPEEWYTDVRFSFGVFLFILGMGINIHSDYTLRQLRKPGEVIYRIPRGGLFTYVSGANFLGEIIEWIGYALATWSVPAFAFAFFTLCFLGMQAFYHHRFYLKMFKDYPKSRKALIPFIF
Kind of assay: Rat 5-α-reductase II enzyme assay (rat epididymus). Particulars: range of IC50 values from different experiments; Tris-citrate pH 4.5. How it is done: as §3
(§4) Rat 5-α-reductase I enzyme assay. Prostates, removed from 16 young male Sprague dawley rats (each weighing about 300-400 g), were minced and homogenized at 0-4° C. in 3 tissue volumes of buffer (0.32 M sucrose, 1 mM dithiothreitol, and 20 mM phosphate buffer, pH 6.5) using a polytron homogenizer. The homogenate was centrifuged at 4° C. at 140,000 g for 1 hour. The resultant pellet, after washing with the homogenizing buffer was suspended in the same buffer and stored at −70° C. The assay was carried out in a final volume of 0.5 ml containing 20 mM phosphate buffer (pH 6.5), 1 mM dithiothreitol, 150 μM NADPH, 2 μM ^14C testosterone and the enzyme concentration (500 μg-1 mg) For conducting the inhibitory studies on a 5-α-reductase I, finasteride and other test compounds were added in 10 μl of ethanol to a concentration 10^−9 to 10^−5 with five to six points including control using duplicate for each point to the above reaction mixture. The incubations were done for 20 minutes at 37° C. The reactions were stopped by adding 2.0 ml of ethyl acetate containing testosterone, 5-α-dihydrotestosterone, and androstenedione (10 μg each). After centrifugation at 1000 g for 5 minutes, the upper ethyl acetate extract was transferred to a tube and then evaporated under nitrogen to dryness. The compounds were taken up in 50 μl of ethyl acetate and chromatographed on Whatman LK5DF silica GF TLC plates using ethyl acetate-cyclohexane (1:1). The respective TLC spots corresponding to testosterone and dihydrotestosterone (Rf value same as that of androstenedione) were scraped from the plate and taken in respective scintillation vials. They were counted in the Beckman scintillation counter model No. LS 6500 with counting efficiency of 95% for ^14C carbon. Finasteride was used as a known standard during all screening. The range of IC50 values for different test compounds obtained from different experiments is shown in Table 1 under the column, Rat Prostate Enzyme I IC50.
as §1

The target in a further assay is T4, 5-α-reductase I enzyme (Rattus norvegicus, UniProt P24008).
T4 construct: Prostates, removed from 16 young male Sprague dawley rats (each weighing about 300-400 g), were minced and homogenized; from tissue; host or cells: rat prostate (Sprague Dawley), 140,000 g pellet
T4 sequence (P24008 1-259): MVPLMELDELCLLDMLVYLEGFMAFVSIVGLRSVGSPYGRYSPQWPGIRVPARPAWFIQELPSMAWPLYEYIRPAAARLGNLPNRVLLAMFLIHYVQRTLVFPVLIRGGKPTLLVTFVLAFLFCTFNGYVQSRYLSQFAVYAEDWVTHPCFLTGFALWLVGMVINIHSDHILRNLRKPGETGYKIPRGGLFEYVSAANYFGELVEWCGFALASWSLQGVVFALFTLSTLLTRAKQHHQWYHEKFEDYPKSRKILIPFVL
Description: Rat 5-α-reductase I enzyme assay (rat prostate). To be noted: range of IC50 values from different experiments; pH 6.5, 2 μM 14C testosterone. How it is done:
as §3, §4

Setting [3] is: range of IC50 values from different experiments, read-out: Human Prostate Enzyme II IC50.

Several values for one entry are separate records, joined by “and”; a condition that tells them apart may be missing. Identical values can stand only once. Like-named read-outs stand apart in the source and are kept apart here.

Data on twelve compounds can be found in US20020035260A1, “4-aza-steroids” (Novopharm Limited, priority 1997, published 2002).

In general, IC50 refers to the concentration at which inhibition is half-maximal. For `CC(C)(C)NC(=O)[C@H]1CC[C@H]2[C@@H]3[C@H](Cl)C[C@H]4NC(=O)C=C[C@]4(C)[C@H]3CC[C@]12C` [7-α-Chloro-finasteride, 7-α-chloro-finasteride], on 5-α-reductase type II, the “activity against 5-α-reductase type II” value is reported as “considerably higher than that of finasteride itself”. The values for the IC50 at 5-α-reductase II enzyme [1] (setting [3]), against 5-α-reductase II enzyme [2] and on 5-α-reductase I enzyme were 0.9 to 3.6 nM, 1.92 to 3.1 nM and 306 to 350 nM, respectively.

On to `CC(C)(C)NC(=O)[C@H]1CC=C2[C@@H]3CC[C@H]4NC(=O)C=C[C@]4(C)[C@H]3CC[C@@]21C` [14,15-Dehydro-finasteride, 14,15-dehydro-finasteride], for which the IC50 at 5-α-reductase II enzyme [1] (setting [3]) is 39 to 49.6 nM; on 5-α-reductase II enzyme [2], 45 nM; against 5-α-reductase I enzyme, 50 to 67 nM.

For `CC(C)(C)NC(=O)C1CCC2C3CCC4NC(=O)C=CC4(C)C3CCC12C` (stereo not drawn) [Finasteride, (5α, 17β)-(1,1-dimethyl-ethyl)-3-oxo-4-aza-androst-1-ene-17-carboxamide, reference compound], the concentration for half-maximal inhibition (IC50) is 2.7 to 10.6 nM and 3.3 to 7 nM on 5-α-reductase II enzyme [1] (Human Prostate Enzyme II IC50, range of IC50 values from different experiments); 5.1 to 14.8 nM and 2.9 to 11.8 nM on 5-α-reductase II enzyme [2]; 11 to 38 nM and 13 to 30 nM against 5-α-reductase I enzyme.

On to `CC(=O)O[C@@H]1C[C@H](C(=O)NC(C)(C)C)[C@@]2(C)CC[C@H]3[C@@H](CC[C@H]4NC(=O)C=C[C@@]43C)[C@H]12` [15-β-Acetoxy-finasteride, 15-β-acetoxy-finasteride], for which the figures for the IC50 on 5-α-reductase II enzyme [1] (read-out: Human Prostate Enzyme II IC50), against 5-α-reductase II enzyme [2] and at 5-α-reductase I enzyme were 2010 nM, 1600 to 2700 nM and 4200 to 5700 nM, respectively.

Regarding `CC(C)(C)NC(=O)C1CC(O)C2C3CCC4NC(=O)C=CC4(C)C3CCC12C` (stereo not drawn) [15-β-hydroxy-finasteride], the concentration for half-maximal inhibition (IC50) on 5-α-reductase II enzyme [1] (setting [3]) is 50 to 59 nM; against 5-α-reductase II enzyme [2], 640 nM; against 5-α-reductase I enzyme, 805 to 853 nM.

Consider `CC(C)(C)NC(=O)[C@H]1CC[C@H]2[C@@H]3[C@H](Cl)C[C@H]4NC(=O)CC[C@]4(C)[C@H]3CC[C@]12C` [1,2-Dihydro-7-α-chloro-finasteride, 1,2-dihydro-7-α-chloro-finasteride], for which the concentration for half-maximal inhibition (IC50) at 5-α-reductase II enzyme [1] (setting [3]) was in the range of 11.5 to 44 nM; at 5-α-reductase II enzyme [2], 2.9 to 8.6 nM; on 5-α-reductase I enzyme it was 53 to 99 nM.

For the compound `CC(C)(C)NC(=O)[C@H]1CC[C@H]2[C@@H]3[C@@H](O)C[C@H]4NC(=O)CC[C@]4(C)[C@H]3CC[C@]12C` [1,2-Dihydro-7-β-hydroxy-finasteride, 1,2-dihydro-7-β-hydroxy-finasteride], the results for the IC50 at 5-α-reductase II enzyme [1] (setting [3]), against 5-α-reductase II enzyme [2] and on 5-α-reductase I enzyme were 536 to 755 nM, 567 to 891 nM and 453 to 492 nM, respectively.

Compound `CC(C)(C)NC(=O)[C@H]1C[C@@H](O)[C@H]2[C@@H]3CC[C@H]4NC(=O)CC[C@]4(C)[C@H]3CC[C@@]21C` [1,2-Dihydro-15-β-hydroxy-finasteride, 1,2-dihydro-15β-hydroxy-finasteride] had a half-inhibitory concentration (IC50) on 5-α-reductase I enzyme of 351 to 468 nM.

Take `CC(=O)O[C@H]1C[C@H]2NC(=O)C=C[C@]2(C)[C@H]2CC[C@]3(C)[C@@H](C(=O)NC(C)(C)C)CC[C@H]3[C@H]12` [7-β-Acetoxy-finasteride, 7-β-acetoxy-finasteride]: the concentration for half-maximal inhibition (IC50) on 5-α-reductase II enzyme [1] (setting [3]) is 175 to 362 nM; against 5-α-reductase II enzyme [2], 135 to 357 nM; at 5-α-reductase I enzyme it was 385 to 697 nM.

In the case of `Cc1ccc(S(=O)(=O)O[C@H]2C[C@H]3NC(=O)C=C[C@]3(C)[C@H]3CC[C@]4(C)[C@@H](C(=O)NC(C)(C)C)CC[C@H]4[C@H]23)cc1` [7-β-Tosyloxy-finasteride, 7-β-tosyloxy-finasteride], the results for the IC50 on 5-α-reductase II enzyme [1] (setting [3]) and against 5-α-reductase I enzyme were 213 to 570 nM and 1500 to 4300 nM, respectively.

Turning to `CC(C)(C)NC(=O)C1CCC2C3C(CCC12C)C1(C)C=CC(=O)NC1C[C@@H]3O` (stereo partly drawn) [7-β-hydroxy-finasteride], the figures for the concentration for half-maximal inhibition (IC50) at 5-α-reductase II enzyme [1] (setting [3]), at 5-α-reductase II enzyme [2] and against 5-α-reductase I enzyme were 62 to 64 nM, 106 nM and 811 to 1800 nM, respectively.

As to `CC(C)(C)NC(=O)[C@H]1CC[C@H]2[C@@H]3[C@H](N=[N+]=[N-])C[C@H]4NC(=O)C=C[C@]4(C)[C@H]3CC[C@]12C` [7-α-Azido-finasteride, 7-α-azido-finasteride], the “activity against 5-α-reductase type II” value on 5-α-reductase type II is recorded as “very high specific inhibitory activity”. For the same compound, the IC50 on 5-α-reductase II enzyme [1] (setting [3]) was in the range of 19 to 32 nM.
